Where “and” joins values, the source holds several entries; their conditions need not be identical. Equal values may be shown once.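 Protocol summary: plate cells (96-well), add compound at 5 concentrations, incubate 48 h, interpolate endpoints linearly. GI50 is the concentration that inhibits growth by half. Definition used: TGI = concentration required for complete inhibition of growth.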
How the values were obtained:
Assay in all cases: NCI tumour cell line growth inhibition, 48 h
LOX IMVI melanoma = test system: LOX IMVI melanoma
A549 NSCLC = test system: A549 NSCLC
SR leukemia = test system: SR leukemia
SF-268 CNS = test system: SF-268 CNS
MALME-3M melanoma = test system: MALME-3M melanoma
OVCAR-5 ovarian = test system: OVCAR-5 ovarian
OVCAR-3 ovarian = test system: OVCAR-3 ovarian
SK-MEL-28 melanoma = test system: SK-MEL-28 melanoma
SK-OV-3 ovarian = test system: SK-OV-3 ovarian
NCI-H460 lung = test system: NCI-H460 lung

`C=CC(=O)N1CCN([C@@H](CC2CC2)c2ccc([C@H](C)Nc3ncc4c(n3)N(CC)C(=O)OC4)cc2)CC1` gave a GI50 (LOX IMVI melanoma) of 11.1 µM, a TGI (LOX IMVI melanoma) of 26.6 µM and a GI50 (A549 NSCLC) of 11400 nM. The TGI (A549 NSCLC) was 28.7 µM, the GI50 (SR leukemia) was 4050 nM and the TGI (SR leukemia) was 22.7 µM. It also gave a GI50 (SF-268 CNS) of 11.7 µM, a TGI (SF-268 CNS) of 28.5 µM and a GI50 (MALME-3M melanoma) of 15.9 µM. For the same compound, the TGI (MALME-3M melanoma) was 30.8 µM, the GI50 (OVCAR-5 ovarian) was 16.6 µM and the TGI (OVCAR-5 ovarian) was 35.4 µM. It also gave a GI50 (OVCAR-3 ovarian) of 12 µM, a TGI (OVCAR-3 ovarian) of 26.5 µM and a GI50 (SK-MEL-28 melanoma) of 16.6 µM. It also gave a TGI (SK-MEL-28 melanoma) of 30.5 µM, a GI50 (SK-OV-3 ovarian) of 14.5 µM and a TGI (SK-OV-3 ovarian) of 30.2 µM. It also gave a GI50 (NCI-H460 lung) of 14.2 µM and a TGI (NCI-H460 lung) of 29.7 µM.

Work on `COc1cccc(C2CC(C)(O)Oc3cc4c(cc32)OCO4)c1` (stereo not drawn) yielded a TGI (LOX IMVI melanoma) of over 100 µM, a TGI (A549 NSCLC) of over 100 µM and a TGI (SR leukemia) of 23.8 µM. For the same compound, the TGI (SF-268 CNS) was over 100 µM, the TGI (MALME-3M melanoma) was over 100 µM and the TGI (OVCAR-5 ovarian) was over 100 µM. For the same compound, the TGI (OVCAR-3 ovarian) was 56 µM, the TGI (SK-MEL-28 melanoma) was over 100 µM and the TGI (SK-OV-3 ovarian) was 67.2 µM. For the same compound, the TGI (NCI-H460 lung) was 53.6 µM.

For `COc1ccc2c(c1[N+](=O)[O-])CC[C@@H]1[C@@H]2CC[C@]2(C)C(=O)CC[C@@H]12`, the GI50 (LOX IMVI melanoma) was 434 µM, the TGI (LOX IMVI melanoma) was over 1000 µM and the GI50 (A549 NSCLC) was over 751000 nM. It also gave a TGI (A549 NSCLC) of over 1000 µM, a GI50 (SR leukemia) of over 25000 nM and a TGI (SR leukemia) of over 1000 µM. For the same compound, the GI50 (SF-268 CNS) was 342 µM, the TGI (SF-268 CNS) was over 1000 µM and the GI50 (MALME-3M melanoma) was over 748 µM. It also gave a GI50 (OVCAR-5 ovarian) of over 1000 µM, a TGI (OVCAR-5 ovarian) of over 1000 µM and a GI50 (OVCAR-3 ovarian) of 631 µM. It also gave a TGI (OVCAR-3 ovarian) of over 1000 µM, a GI50 (SK-MEL-28 melanoma) of over 843 µM and a GI50 (SK-OV-3 ovarian) of 413 µM. It also gave a GI50 (NCI-H460 lung) of over 756 µM.

In the case of `Clc1cccc(-c2cc(-c3ccc4c(c3)OCCO4)[nH]n2)c1`, the GI50 (LOX IMVI melanoma) is reported as 4.43 µM, the TGI (LOX IMVI melanoma) is reported as 39.4 µM and the GI50 (A549 NSCLC) is reported as 1550 nM. The TGI (A549 NSCLC) was 44.5 µM, the GI50 (SR leukemia) was 988 nM and the TGI (SR leukemia) was 98.3 µM. For the same compound, the GI50 (SF-268 CNS) was 12.4 µM, the TGI (SF-268 CNS) was 57.1 µM and the GI50 (MALME-3M melanoma) was 5.22 µM. It also gave a TGI (MALME-3M melanoma) of 47.5 µM, a GI50 (OVCAR-5 ovarian) of 10.4 µM and a TGI (OVCAR-5 ovarian) of 47.7 µM. For the same compound, the GI50 (OVCAR-3 ovarian) was 1.95 µM, the TGI (OVCAR-3 ovarian) was 31.3 µM and the GI50 (SK-MEL-28 melanoma) was 27.2 µM. For the same compound, the TGI (SK-MEL-28 melanoma) was 57 µM, the GI50 (SK-OV-3 ovarian) was 5.42 µM and the TGI (SK-OV-3 ovarian) was 46.7 µM. The GI50 (NCI-H460 lung) was 1.01 µM and the TGI (NCI-H460 lung) was 31.8 µM.

`CCN(CC)C(=O)c1cccc2c(OC)ccc(OC)c12` was tested, and the TGI (LOX IMVI melanoma) was over 100 µM, the TGI (A549 NSCLC) was over 100 µM and the TGI (SR leukemia) was over 100 µM. For the same compound, the TGI (SF-268 CNS) was over 100 µM, the TGI (MALME-3M melanoma) was over 100 µM and the TGI (OVCAR-5 ovarian) was over 100 µM. The TGI (OVCAR-3 ovarian) was over 100 µM, the TGI (SK-MEL-28 melanoma) was over 100 µM and the TGI (SK-OV-3 ovarian) was over 100 µM. For the same compound, the TGI (NCI-H460 lung) was over 100 µM.

For `CN(C)CCN1C(=O)c2cccc3cc(N)cc(c23)C1=O`, the GI50 (LOX IMVI melanoma) was 2.18 µM, the TGI (LOX IMVI melanoma) was > 31.3 µM and 7.29 µM and the GI50 (A549 NSCLC) was 912 nM and 1510 nM. For the same compound, the TGI (A549 NSCLC) was > 21.5 µM and 9.09 µM, the GI50 (SR leukemia) was 3380 nM and 824 nM and the TGI (SR leukemia) was > 40.8 µM and 11 µM. The GI50 (SF-268 CNS) was 3.83 µM, the TGI (SF-268 CNS) was 25.6 µM and 28.9 µM and the GI50 (MALME-3M melanoma) was 2.41 µM. For the same compound, the TGI (MALME-3M melanoma) was 9.85 µM and 8.29 µM, the GI50 (OVCAR-5 ovarian) was 3.98 µM and the TGI (OVCAR-5 ovarian) was 48.7 µM and 13.8 µM. For the same compound, the GI50 (OVCAR-3 ovarian) was 4.98 µM, the TGI (OVCAR-3 ovarian) was 25.9 µM and 26.4 µM and the TGI (SK-MEL-28 melanoma) was 27.8 µM and 19.6 µM. The TGI (SK-OV-3 ovarian) was 38.4 µM and 17.4 µM and the TGI (NCI-H460 lung) was 5.34 µM and 5.95 µM.

For `CC(C)CC(NC(=O)C(O)C(N)Cc1ccccc1)C(=O)O` (stereo not drawn), the TGI (LOX IMVI melanoma) was over 100 µM, the TGI (A549 NSCLC) was over 100 µM and the TGI (SR leukemia) was over 100 µM. It also gave a TGI (SF-268 CNS) of over 100 µM, a TGI (MALME-3M melanoma) of over 100 µM and a TGI (OVCAR-5 ovarian) of over 100 µM. For the same compound, the TGI (OVCAR-3 ovarian) was over 100 µM, the TGI (SK-MEL-28 melanoma) was over 100 µM and the TGI (SK-OV-3 ovarian) was over 100 µM. The TGI (NCI-H460 lung) was over 100 µM.

`Cc1ccc(NC(=O)c2ccoc2)cc1-c1ccc(C(=O)NCC2CC2)cc1` gave a GI50 (LOX IMVI melanoma) of over 25 µM, a TGI (LOX IMVI melanoma) of over 25 µM and a GI50 (A549 NSCLC) of over 19500 nM. The TGI (A549 NSCLC) was over 25 µM, the GI50 (SR leukemia) was over 25000 nM and the TGI (SR leukemia) was over 25 µM. It also gave a GI50 (SF-268 CNS) of over 25 µM, a TGI (SF-268 CNS) of over 25 µM and a GI50 (MALME-3M melanoma) of over 12.9 µM. It also gave a TGI (MALME-3M melanoma) of over 25 µM, a GI50 (OVCAR-5 ovarian) of over 25 µM and a TGI (OVCAR-5 ovarian) of over 25 µM. It also gave a GI50 (OVCAR-3 ovarian) of over 17.9 µM, a TGI (OVCAR-3 ovarian) of over 25 µM and a GI50 (SK-MEL-28 melanoma) of over 25 µM. It also gave a TGI (SK-MEL-28 melanoma) of over 25 µM, a GI50 (SK-OV-3 ovarian) of over 25 µM and a TGI (SK-OV-3 ovarian) of over 25 µM. For the same compound, the GI50 (NCI-H460 lung) was over 24 µM and the TGI (NCI-H460 lung) was over 25 µM.

In the case of `C=CCn1c(SCC(=O)Nc2ccc(C(=O)/C=C/c3cc(OC)c(OC)c(OC)c3)cc2)nnc1-c1cc(OC)c(OC)c(OC)c1`, the GI50 (LOX IMVI melanoma) is reported as 2.3 µM, the TGI (LOX IMVI melanoma) is reported as 6.53 µM and the GI50 (A549 NSCLC) is reported as 6460 nM. It also gave a TGI (A549 NSCLC) of 36.5 µM, a GI50 (SR leukemia) of 2340 nM and a TGI (SR leukemia) of over 100 µM. The GI50 (SF-268 CNS) was 3.99 µM, the TGI (SF-268 CNS) was 64.6 µM and the GI50 (MALME-3M melanoma) was 11.1 µM. For the same compound, the TGI (MALME-3M melanoma) was 64.4 µM, the GI50 (OVCAR-5 ovarian) was 3.97 µM and the TGI (OVCAR-5 ovarian) was 28.1 µM. For the same compound, the GI50 (OVCAR-3 ovarian) was 2.98 µM, the TGI (OVCAR-3 ovarian) was 8.46 µM and the GI50 (SK-MEL-28 melanoma) was 3.29 µM. It also gave a TGI (SK-MEL-28 melanoma) of 32.3 µM, a GI50 (SK-OV-3 ovarian) of 5.08 µM and a TGI (SK-OV-3 ovarian) of 21.2 µM. It also gave a GI50 (NCI-H460 lung) of 3.76 µM and a TGI (NCI-H460 lung) of 14.5 µM.

Work on `CN1CCC2(CC1)C(=O)Nc1cc(NC(=O)c3ccc4c(c3)C[C@@H]3C(C)(C)[C@H](O)[C@H](F)C[C@@]3(C)O4)ccc12` yielded a GI50 (LOX IMVI melanoma) of 0.55 µM, a TGI (LOX IMVI melanoma) of 12.5 µM and a GI50 (A549 NSCLC) of 2740 nM. It also gave a TGI (A549 NSCLC) of 37.2 µM, a GI50 (SR leukemia) of 51.4 nM and a TGI (SR leukemia) of 88.2 µM. For the same compound, the GI50 (SF-268 CNS) was 6.68 µM, the TGI (SF-268 CNS) was 31.9 µM and the GI50 (MALME-3M melanoma) was 1.49 µM. For the same compound, the TGI (MALME-3M melanoma) was 9.79 µM, the GI50 (OVCAR-5 ovarian) was 12.3 µM and the TGI (OVCAR-5 ovarian) was over 100 µM. For the same compound, the GI50 (OVCAR-3 ovarian) was 18.5 µM, the TGI (OVCAR-3 ovarian) was 66.8 µM and the GI50 (SK-MEL-28 melanoma) was 1.53 µM. It also gave a TGI (SK-MEL-28 melanoma) of 14.5 µM, a GI50 (SK-OV-3 ovarian) of 1.71 µM and a TGI (SK-OV-3 ovarian) of 27.3 µM. It also gave a GI50 (NCI-H460 lung) of 0.684 µM and a TGI (NCI-H460 lung) of 25.4 µM.

Compound `CC(C)OC(=O)Nc1c([N+](=O)[O-])cc(C(F)(F)F)cc1[N+](=O)[O-]` has a TGI (LOX IMVI melanoma) of over 100 µM, a TGI (A549 NSCLC) of over 100 µM and a TGI (SR leukemia) of over 100 µM. The TGI (SF-268 CNS) was over 100 µM, the TGI (MALME-3M melanoma) was over 100 µM and the TGI (OVCAR-5 ovarian) was over 100 µM. For the same compound, the TGI (OVCAR-3 ovarian) was over 100 µM, the TGI (SK-MEL-28 melanoma) was over 100 µM and the TGI (SK-OV-3 ovarian) was over 100 µM. For the same compound, the TGI (NCI-H460 lung) was over 100 µM.

Reference: PubChem BioAssay (NCI)
